One may read the IC50 as the midpoint of a concentration-inhibition curve.

A value given as a limit tells only on which side of the number the result lay.

The subject of the first assay is stimulated primary human T cells. Nature of the assay: T cell proliferation assay, Condition A (X-VIVO15). It is filed as cell-based. The settings on record: Homo sapiens, T-cell, 96 h; Condition A: X-VIVO15 medium; anti-CD3/anti-CD28 beads, ATP, 4 days; CFSE-lo T cells. How it is done:
(§1) The goal of this study was to determine the potency of ENT1 inhibitors by measuring the rescued proliferation of stimulated primary human T cells incubated in the presence of 100 uM Adenosine triphosphate (ATP), in baseline conditions (condition A) or in the presence of various proteins known to bind small molecules (condition B).
(§2) Venous blood from healthy volunteers, all of whom signed an informed consent approved by the Ethics Committee (FOR—UIC—BV-050-01-01 ICF_HBS_HD Version 5.0), was obtained by ImmuneHealth (Centre Hospitalier Universitaire Tivoli, La Louviere, Belgium). Mononuclear cells were collected by density gradient centrifugation, using SepMate-50 tubes (StemCell Technologies, Grenoble, France) and Lymphoprep (Stemcell Technologies) according to the manufacturer's instructions. CD3+ T cells were isolated by immunomagnetic negative selection, using the EasySep Human T Cell Isolation Kit (StemCell Technologies) as per the manufacturer's instructions. CD3+ T cells were stored in heat inactivated FBS (hiFBS; Gibco, ThermoFisher Scientific, Merelbeke, Belgium) and 10% DMSO in liquid nitrogen.
(§3) Purified human CD3+ T cells were thawed and washed once with RPMI1640 medium, UltraGlutamine (Lonza, Verviers, Belgium) containing 10% hiFBS. Cells were resuspended in PBS containing 10% hiFBS at 1×10^7 cells/ml. One volume of cells was combined with a matching volume of 2 μM CFSE solution in PBS, mixed well by pipetting, and incubated at room temperature for 5 minutes under rotation and protected from light. Excess CFSE was quenched by addition of PBS containing 10% hiFBS, and the cells were centrifuged (300×rcf, 7 minutes) and resuspended in X-VIVO15. Cells were again centrifuged and resuspended in X-VIVO15 for counting.
(§4) Cells were resuspended at 1.6×10^6 cells/mL in X-VIVO15 medium (Condition A) or X-VIVO15 medium containing 4% (v/v) HSA (Sigma-Aldrich, Diegem, Belgium) and 0.2% (v/v) ai-Acid Glycoprotein (Sigma-Aldrich, Diegem, Belgium) (Condition B).
(§5) […] of cell suspension (2×10^4 cells) was added to wells of sterile flat-bottom 384-well plates. Cells were activated by adding […] of anti-CD3 anti-CD28 coated microbeads (Dynabeads human T-activator CD3/CD28; Life Technologies, Paisley, UK) suspended in X-VIVO15 medium or X-VIVO15 medium containing 4% (v/v) HSA and 0.2% (v/v) ai-Acid Glycoprotein at a ratio of one microbead per two cells. Serial dilutions of the ENT1 inhibitors were conducted in X-VIVO15 medium and […] of the diluent was added to the wells. Cells were mixed by pipetting up and down and pre-incubated for 30 minutes in a 37° C. humidified tissue culture incubator with 5% CO2. After pre-incubation, cells were cultured in the presence or absence of ATP (Sigma-Aldrich) at a final concentration of […]. The final well volume was 50 μl in all cases. Experiments were performed in biological duplicates. Cells were mixed by pipetting up and down and incubated for 4 days in a 37° C. humidified tissue culture incubator with 5% CO2.
(§6) Samples were run on a BD LSR Fortessa FACS machine (BD FACSDiva Software v9.0.1). Data were analyzed using FlowJo (BD, v10.7.1). T cell proliferation was determined by measuring the frequency of ‘CFSE^lo’ (i.e. CFSE-diluted).
(§7) T cell proliferation data were analyzed using FlowJo software (Version 10.6.2). Dead cells and cellular debris were excluded on the basis of forward and side scatter profile and singlet cells were selected for further analysis.
(§8) T cell proliferation was determined based on the percent CFSE^lo total T cells for each condition. The data were plotted on the y-axis against log molar (M) concentration of ENT1 inhibitors on the x-axis in GraphPad Prism (version 9.0.0). IC50 and IC90 values were generated with the ‘log(agonist) vs. response—Find ECanything(F))’ function with F constrained to 50 or 90, respectively. pICF values were generated by taking the −logECF values.
Consider `COC(=O)[C@H]1O[C@@H](n2cnc3c(SCc4ccc([N+](=O)[O-])cc4)ncnc32)[C@H](O)[C@@H]1O` [Compound 152], for which the IC50 is over 500 nM.
As to `C[C@H]1O[C@@H](n2c(NCc3cnn(C)c3)nc3c(OCc4ccc(C#N)cc4)ncnc32)[C@H](O)[C@@H]1O` [Compound 65], the IC50 was 1 to 20 nM.
In the case of `C[C@H]1O[C@@H](n2c(NCC3CCOC3)nc3c(OCc4ccc(C#N)cc4)ncnc32)[C@H](O)[C@@H]1O` (stereo partly drawn) [Compound 108], the IC50 was 1 to 20 nM.
Compound `C[C@H]1O[C@@H](n2c(NCC3CCOC3)nc3c(OCc4ccc(OC(F)F)cc4)ncnc32)[C@H](O)[C@@H]1O` (stereo partly drawn) [Compound 112] yielded an IC50 of under 1 nM.
Still for that read-out and setting: under `C[C@H]1O[C@@H](n2c(NC3CCCC3)nc3c(N4CCc5ccc(C#N)cc5C4)ncnc32)[C@H](O)[C@@H]1O` [Compound 153] stands under 1 nM; under `C[C@H]1O[C@@H](n2c(NC3CCS(=O)(=O)CC3)nc3c(OCc4ccc(OC(F)F)cc4)ncnc32)[C@H](O)[C@@H]1O` [Compound 55], under 1 nM; under `C[C@H]1O[C@@H](n2c(Nc3cnn(C)c3)nc3c(OCc4ccc([N+](=O)[O-])cc4)ncnc32)[C@H](O)[C@@H]1O` [Compound 17], 1 to 20 nM.
The compound `C[C@H]1O[C@@H](n2c(N[C@@H]3CCC(F)(F)C3)nc3c(OCc4ccc(C#N)cc4)ncnc32)[C@H](O)[C@@H]1O` [Compound 81] displayed an IC50 of under 1 nM.
`C[C@H]1O[C@@H](n2cnc3c(SCc4ccc(OC(F)F)cc4)ncnc32)[C@H](O)[C@@H]1O` [Compound 176] registered an IC50 of 1 to 20 nM.
On to `OC[C@H]1O[C@@H](n2cnc3c(OCc4ccc(OC(F)(F)F)cc4)nc(Cl)nc32)[C@H](O)[C@@H]1O` [Compound 156], for which the IC50 was 1 to 20 nM.
`C[C@H]1O[C@@H](n2c(NCC(F)(F)F)nc3c(OCc4ccc([N+](=O)[O-])cc4)ncnc32)[C@H](O)[C@@H]1O` [Compound 24] returned an IC50 of 1 to 20 nM.
With `C[C@H]1O[C@@H](n2c(N)nc3c(N4CCc5ccc([N+](=O)[O-])cc5C4)ncnc32)[C@H](O)[C@@H]1O` [Compound 145], the IC50 lay in the range of 1 to 20 nM.

A further assay has the same test system. Nature of the assay: T cell proliferation assay, Condition B (X-VIVO15, 2% HSA and 0.1% AAG). It is filed as cell-based. The settings on record: Homo sapiens, T-cell, 96 h; Condition B: X-VIVO15 medium containing HSA and α1-Acid Glycoprotein; anti-CD3/anti-CD28 beads, ATP, 4 days; CFSE-lo T cells. How it is done:
as §1
Condition B: X-VIVO15, 2% Human Serum Albumin (HSA) and 0.1% α-1-Acid Glycoprotein (AAG)
as §2, §3, §4, §5, §6, §7, §8
The compound `COC(=O)[C@H]1O[C@@H](n2cnc3c(SCc4ccc([N+](=O)[O-])cc4)ncnc32)[C@H](O)[C@@H]1O` [Compound 152] showed an IC50 of over 500 nM.
`C[C@H]1O[C@@H](n2c(NCc3cnn(C)c3)nc3c(OCc4ccc(C#N)cc4)ncnc32)[C@H](O)[C@@H]1O` [Compound 65]: the IC50 was in the range of 20 to 500 nM.
`C[C@H]1O[C@@H](n2c(NCC3CCOC3)nc3c(OCc4ccc(C#N)cc4)ncnc32)[C@H](O)[C@@H]1O` (stereo partly drawn) [Compound 108] registered an IC50 of 20 to 500 nM.
Take `C[C@H]1O[C@@H](n2c(NCC3CCOC3)nc3c(OCc4ccc(OC(F)F)cc4)ncnc32)[C@H](O)[C@@H]1O` (stereo partly drawn) [Compound 112]: the IC50 was 20 to 500 nM.
For the compound `C[C@H]1O[C@@H](n2c(NC3CCCC3)nc3c(N4CCc5ccc(C#N)cc5C4)ncnc32)[C@H](O)[C@@H]1O` [Compound 153], the IC50 was in the range of 20 to 500 nM.
For `C[C@H]1O[C@@H](n2c(NC3CCS(=O)(=O)CC3)nc3c(OCc4ccc(OC(F)F)cc4)ncnc32)[C@H](O)[C@@H]1O` [Compound 55], the IC50 lay in the range of 1 to 20 nM.
As to `C[C@H]1O[C@@H](n2c(Nc3cnn(C)c3)nc3c(OCc4ccc([N+](=O)[O-])cc4)ncnc32)[C@H](O)[C@@H]1O` [Compound 17], the IC50 is 20 to 500 nM.
Take `C[C@H]1O[C@@H](n2c(N[C@@H]3CCC(F)(F)C3)nc3c(OCc4ccc(C#N)cc4)ncnc32)[C@H](O)[C@@H]1O` [Compound 81]: the IC50 lay in the range of 20 to 500 nM.
As for `C[C@H]1O[C@@H](n2cnc3c(SCc4ccc(OC(F)F)cc4)ncnc32)[C@H](O)[C@@H]1O` [Compound 176], the IC50 was over 500 nM.
Same read-out and setting: under `OC[C@H]1O[C@@H](n2cnc3c(OCc4ccc(OC(F)(F)F)cc4)nc(Cl)nc32)[C@H](O)[C@@H]1O` [Compound 156] stands 20 to 500 nM; under `C[C@H]1O[C@@H](n2c(NCC(F)(F)F)nc3c(OCc4ccc([N+](=O)[O-])cc4)ncnc32)[C@H](O)[C@@H]1O` [Compound 24], 20 to 500 nM.
Take `C[C@H]1O[C@@H](n2c(N)nc3c(N4CCc5ccc([N+](=O)[O-])cc5C4)ncnc32)[C@H](O)[C@@H]1O` [Compound 145]: the IC50 was in the range of 20 to 500 nM.

A further assay concerns the target T1, human ENT1 (Homo sapiens, UniProt Q99808).
T1 construct: JAR cells expressing ENT1 were purchased from ATCC; host or cells: JAR cells
T1 sequence (Q99808 1-456): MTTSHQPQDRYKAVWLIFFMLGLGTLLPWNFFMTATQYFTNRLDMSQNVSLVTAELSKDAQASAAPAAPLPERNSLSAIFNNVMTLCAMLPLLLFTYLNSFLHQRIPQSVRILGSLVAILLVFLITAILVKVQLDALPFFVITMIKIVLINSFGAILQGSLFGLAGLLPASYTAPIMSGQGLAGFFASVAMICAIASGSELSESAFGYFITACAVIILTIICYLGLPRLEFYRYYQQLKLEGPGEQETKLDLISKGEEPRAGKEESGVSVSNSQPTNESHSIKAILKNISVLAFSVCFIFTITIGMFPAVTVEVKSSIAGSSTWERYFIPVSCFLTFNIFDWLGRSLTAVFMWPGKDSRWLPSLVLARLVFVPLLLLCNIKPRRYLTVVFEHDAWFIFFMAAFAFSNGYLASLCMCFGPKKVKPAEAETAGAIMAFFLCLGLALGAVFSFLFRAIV
Put plainly: ENT1 binding assay (competition with Sahenta-DY647 on JAR cells). The settings on record: competition with SAHENTA-DY647 binding; IC50 categorized; read-out: Binding Assay IC50. In outline:
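Fluorescent-tracer displacement: compound incubated with JAR cells 30 min, 4 °C, before Sahenta-DY647 (100 nM) for another 30 min, 4 °C, in Hepes-buffered HBSS with 0.1% BSA. Bound tracer read at 670 nm after washes; IC50 from four-parameter fit, reported as mean of pIC50 values.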
Consider `COC(=O)[C@H]1O[C@@H](n2cnc3c(SCc4ccc([N+](=O)[O-])cc4)ncnc32)[C@H](O)[C@@H]1O` [Compound 152], for which the concentration for half-maximal inhibition (IC50) lay within 1 to 20 nM.
In the case of `C[C@H]1O[C@@H](n2c(NCc3cnn(C)c3)nc3c(OCc4ccc(C#N)cc4)ncnc32)[C@H](O)[C@@H]1O` [Compound 65], the IC50 was 1 to 20 nM.
On the same count and under the same terms, under `C[C@H]1O[C@@H](n2c(NCC3CCOC3)nc3c(OCc4ccc(C#N)cc4)ncnc32)[C@H](O)[C@@H]1O` (stereo partly drawn) [Compound 108] stands 1 to 20 nM; under `C[C@H]1O[C@@H](n2c(NCC3CCOC3)nc3c(OCc4ccc(OC(F)F)cc4)ncnc32)[C@H](O)[C@@H]1O` (stereo partly drawn) [Compound 112], 1 to 20 nM.
`C[C@H]1O[C@@H](n2c(NC3CCCC3)nc3c(N4CCc5ccc(C#N)cc5C4)ncnc32)[C@H](O)[C@@H]1O` [Compound 153]: the IC50 lay in the range of 1 to 20 nM.
With `C[C@H]1O[C@@H](n2c(NC3CCS(=O)(=O)CC3)nc3c(OCc4ccc(OC(F)F)cc4)ncnc32)[C@H](O)[C@@H]1O` [Compound 55], the IC50 is under 1 nM.
Still for that read-out and setting: under `C[C@H]1O[C@@H](n2c(Nc3cnn(C)c3)nc3c(OCc4ccc([N+](=O)[O-])cc4)ncnc32)[C@H](O)[C@@H]1O` [Compound 17] stands 1 to 20 nM; under `C[C@H]1O[C@@H](n2c(N[C@@H]3CCC(F)(F)C3)nc3c(OCc4ccc(C#N)cc4)ncnc32)[C@H](O)[C@@H]1O` [Compound 81], under 1 nM; under `C[C@H]1O[C@@H](n2cnc3c(SCc4ccc(OC(F)F)cc4)ncnc32)[C@H](O)[C@@H]1O` [Compound 176], 20 to 500 nM.
As for `OC[C@H]1O[C@@H](n2cnc3c(OCc4ccc(OC(F)(F)F)cc4)nc(Cl)nc32)[C@H](O)[C@@H]1O` [Compound 156], the IC50 is 1 to 20 nM.
Turning to `C[C@H]1O[C@@H](n2c(NCC(F)(F)F)nc3c(OCc4ccc([N+](=O)[O-])cc4)ncnc32)[C@H](O)[C@@H]1O` [Compound 24], the IC50 fell in the range of 1 to 20 nM.
Turning to `C[C@H]1O[C@@H](n2c(N)nc3c(N4CCc5ccc([N+](=O)[O-])cc5C4)ncnc32)[C@H](O)[C@@H]1O` [Compound 145], the IC50 was under 1 nM.

For the origin of these results see patent US20260184712A1, “Heterocyclic Compounds as ENT Inhibitors and Compounds for Use in the Treatment of Cancers” (iTeos Belgium SA, priority 2022, published 2026).
